# Test: xn = mol fraction of the nth substance listed
# Details: 100 kPa
structure (smiles),measurement,setting,value
C[N+](C)(C)Cc1ccccc1.[Cl-] + O,viscosity,"298.15 K, x1 = 0.0001",0.895 mPa·s
same,viscosity,"298.15 K, x1 = 0.0003",0.897 mPa·s
same,viscosity,"298.15 K, x1 = 0.0005",0.901 mPa·s
same,viscosity,"303.15 K, x1 = 0.0001",0.806 mPa·s
same,viscosity,"303.15 K, x1 = 0.0003",0.808 mPa·s
same,viscosity,"308.15 K, x1 = 0.0001",0.723 mPa·s
same,viscosity,"308.15 K, x1 = 0.0003",0.726 mPa·s
same,viscosity,"308.15 K, x1 = 0.0005",0.73 mPa·s
same,viscosity,"313.15 K, x1 = 0.0001",0.627 mPa·s
same,viscosity,"313.15 K, x1 = 0.0003",0.623 mPa·s
same,viscosity,"313.15 K, x1 = 0.0005",0.638 mPa·s
same,viscosity,"318.15 K, x1 = 0.0001",0.541 mPa·s
same,viscosity,"318.15 K, x1 = 0.0003",0.537 mPa·s
same,viscosity,"318.15 K, x1 = 0.0005",0.552 mPa·s
